Reference: patent publication EP3253400B1, “OLEANOYL PEPTIDE COMPOSITION” (Majeed, Muhammed, priority 2015, dated 2023)
No end group written: not given here.

How the values were obtained:
[1] = system: Transforming Growth Factor-β (TGF- β); assay: TGF-β production by Human Dermal Fibroblast cells, ELISA; format: cell-based; conditions: HDF cells, graded concentrations, 48 hrs, vs un-treated cells; values only in Fig. 1
Experimental: (§1) Evaluation of Transforming Growth factor beta (TGF-β) and Fibroblast Growth Factor (FGF): Human Dermal Fibroblast (HDF) cells were cultured in DMEM medium with 10% FBS and seeded in 96 well tissue culture plate for the test. […] After 48hrs the supernatant was collected from each well. The amount of TGF-β and FGF produced by the various treated HDF was quantified using ELISA method according to the kit protocol provided by the manufacturer (R&D Systems) and absorbance was measured at 450 nm using Fluostar Optima. Standard curve was generated by plotting absorbance values of standards against appropriate TGF-β/ FGF concentrations. TGF-β/ FGF concentrations of the control and test samples were calculated from the standard graph equation. Percentage increase of expression in test samples was calculated with respect to un-treated cells. The results of the experiment are exemplified in Figs. 1 and 2 respectively. The importance of TGF- β1 in the synthesis of extracellular matrix in well established in • 1. Yang T et al, "miR-29 mediates TGFβ1-induced extracellular matrix synthesis through activation of PI3K-AKT pathway in human lung fibroblasts", J Cell Biochem. 2013 Jun;114(6):1336-42; • 2. Tan J et al, "MicroRNA-29 mediates TGFβ1-induced extracellular matrix synthesis by targeting wnt/β-catenin pathway in human orbital fibroblasts." Int J Clin Exp Pathol. 2014 Oct 15;7(11):7571-7; • 3. […]

Fibroblast Growth Factor = assay: FGF production by Human Dermal Fibroblast cells, ELISA; format: cell-based; conditions: HDF cells, graded concentrations, 48 hrs, vs un-treated cells; values only in Fig. 2
Experimental: as §1

LOX = assay: Gene expression analysis, full-thickness in vitro skin culture model (EFT-400), qPCR; format: cell-based, human; conditions: EFT-400 culture, 100 µL applied, 24 hours; values only in Fig. 4
Excerpt: (§2) Each culture was visually inspected to ensure even distribution.

HSP-90 = assay: as above; format: cell-based, human; conditions: EFT-400 culture, 100 µL applied, 24 hours; values only in Fig. 3
Excerpt: as §2

TIMP = assay: as above; format: cell-based, human; conditions: EFT-400 culture, 100 µL applied, 24 hours; values only in Fig. 6
Excerpt: as §2

KLK5 = conditions: gene KLK5 (kallikrein-related peptidase 5); EFT-400 culture, 100 µL applied, 24 hours
Experimental: (§3) The objective of the study was to understand how application of test composition containing peptide of SEQ ID No. 1 linked to oleanolic acid represented by STR#1 influences gene expression in the skin. The current study was conducted using a full-thickness in vitro skin culture model (EFT-400, MatTek). One hundred microliters of Test Material was applied to the surface of each test culture and incubated for a period of 24 hours.
(§4) Treatment and Maintenance of cultures: 100 µL of test composition containing peptide of SEQ ID No. 1 linked to oleanolic acid represented by STR#1 was applied to the center of each EFT-400 culture. A sterile glass spreader was used to distribute the Test Material. Each culture was visually inspected to ensure even distribution. Following application, the cultures were returned to the incubator at 37°C with 5% CO2 for 24 hours. After 24 hours, the Test Materials were washed from the surface of each culture with sterile PBS. Following removal of test material, each culture was cut into quarters and placed into RNA solution.
(§5) RNA Isolation: RNA was isolated from tissues using a Maxwell 16 LEV RNA Tissue kit following the manufacturer's instructions (Promega) and vacuum concentrated until >200ng/uL as required for OpenArray processing. RNA concentration and purity were determined using a Nanodrop 2000 spectrophotometer. cDNA synthesis: cDNA was generated using a High Capacity cDNA Synthesis Kit according to the manufacturer's instructions for OpenArray processing (Life Technologies).
(§6) qPCR Processing: qPCR reactions were run using validated Taqman gene expression assays in an OpenArray format. OpenArrays were run in a Life Technologies QuantStudio 12K Flex instrument.
(§7) Data Analysis: qPCR data was imported into RealTime StatMiner software v4.2 for statistical analysis using the relative quantitation (RQ) method. In the first step of an RQ analysis, the CT value of the target gene is normalized to the CT value of an endogenous control gene for each sample to generate the delta CT (dCT).

AQP5 = conditions: gene AQP5 (aquaporin 5); EFT-400 culture, 100 µL applied, 24 hours
Experimental: as §3, §4, §5, §6, §7

HSP-47 = conditions: EFT-400 culture, 100 µL applied, 24 hours; values only in Fig. 5
Experimental: as §3, §4, §5, §6, §7

LOR = conditions: gene LOR (loricrin); EFT-400 culture, 100 µL applied, 24 hours
Experimental: as §3, §4, §5, §6, §7

IL8 = conditions: gene IL8 (interleukin 8); EFT-400 culture, 100 µL applied, 24 hours
Experimental: as §3, §4, §5, §6, §7

TP63 = conditions: gene TP63 (tumor protein p63); EFT-400 culture, 100 µL applied, 24 hours
Experimental: as §3, §4, §5, §6, §7

DSG3 = conditions: gene DSG3 (desmoglein 3); EFT-400 culture, 100 µL applied, 24 hours
Experimental: as §3, §4, §5, §6, §7

PTGS2 = conditions: gene PTGS2 (Prostaglandin endoperoxide synthase 2/ COX2); EFT-400 culture, 100 µL applied, 24 hours
Experimental: as §3, §4, §5, §6, §7

ITGB4 = conditions: gene ITGB4 (integrin, beta 4); EFT-400 culture, 100 µL applied, 24 hours
Experimental: as §3, §4, §5, §6, §7

CALML5 = conditions: gene CALML5 (calmodulin-like 5); EFT-400 culture, 100 µL applied, 24 hours
Experimental: as §3, §4, §5, §6, §7

KRT4 = conditions: gene KRT4 (keratin 4); EFT-400 culture, 100 µL applied, 24 hours
Experimental: as §3, §4, §5, §6, §7

BMP2 = conditions: gene BMP2 (bone morphogenetic protein 2); EFT-400 culture, 100 µL applied, 24 hours
Experimental: as §3, §4, §5, §6, §7

TNF = conditions: gene TNF (tumor necrosis factor (TNFsuperfamily,member)); EFT-400 culture, 100 µL applied, 24 hours
Experimental: as §3, §4, §5, §6, §7

PPARD = conditions: gene PPARD (peroxisome proliferator-activated receptor); EFT-400 culture, 100 µL applied, 24 hours
Experimental: as §3, §4, §5, §6, §7

MKI67 = conditions: gene MKI67 (antigen identified by Ki-67 antibody); EFT-400 culture, 100 µL applied, 24 hours
Experimental: as §3, §4, §5, §6, §7

ILIA = conditions: gene ILIA (interleukin 1, alpha); EFT-400 culture, 100 µL applied, 24 hours
Experimental: as §3, §4, §5, §6, §7

FLG = conditions: gene FLG (filaggrin); EFT-400 culture, 100 µL applied, 24 hours
Experimental: as §3, §4, §5, §6, §7

TGFB1 = conditions: gene TGFB1 (transforming growth factor, beta 1); EFT-400 culture, 100 µL applied, 24 hours
Experimental: as §3, §4, §5, §6, §7

CLDN7 = conditions: gene CLDN7 (claudin 7); EFT-400 culture, 100 µL applied, 24 hours
Experimental: as §3, §4, §5, §6, §7

LCE3D = conditions: gene LCE3D (late cornified envelope 3D); EFT-400 culture, 100 µL applied, 24 hours
Experimental: as §3, §4, §5, §6, §7

CDSN = conditions: gene CDSN (corneodesmosin); EFT-400 culture, 100 µL applied, 24 hours
Experimental: as §3, §4, §5, §6, §7

KRT10 = conditions: gene KRT10 (keratin 10); EFT-400 culture, 100 µL applied, 24 hours
Experimental: as §3, §4, §5, §6, §7

Question: Which “TGF- β expression in human dermal fibroblasts” value [1] does the source give for “test composition containing peptide of SEQ ID No. 1: peptide of SEQ ID No. 1 linked to oleanolic acid represented by STR#1; pentapeptide conjugate of oleanolic acid (KTTKS; also: linked to oleanolic acid, place not given here)” here?
Answer: increase

Question: And the “fibroblast growth factor expression in human dermal fibroblasts” value (Fibroblast Growth Factor)?
Answer: increase

Question: What about the “skin expression of LOX gene” value (LOX) of the same substance?
Answer: Up-regulation

Question: What about the “skin expression of HSP-90 gene” value (HSP-90) of the same substance?
Answer: Up-regulation

Question: And the “skin expression of TIMP gene” value (TIMP)?
Answer: Up-regulation

Question: And the “Fold Increase” value (KLK5)?
Answer: 2.44 Fold

Question: And the “Fold Increase” value (AQP5)?
Answer: 1.97 Fold

Question: What about the “skin expression of HSP-47 gene” value (HSP-47) of the same substance?
Answer: Up-regulation

Question: What about the “Fold Increase” value (LOR) of the same substance?
Answer: 1.63 Fold

Question: And the “Fold Decrease” value (IL8)?
Answer: -1.68 Fold

Question: And the “Fold Increase” value (TP63)?
Answer: 1.56 Fold

Question: What about the “Fold Increase” value (DSG3) of the same substance?
Answer: 2.19 Fold

Question: And the “Fold Decrease” value (PTGS2)?
Answer: -1.80 Fold

Question: And the “Fold Increase” value (ITGB4)?
Answer: 1.76 Fold

Question: What about the “Fold Increase” value (CALML5) of the same substance?
Answer: 1.91 Fold

Question: And the “Fold Decrease” value (KRT4)?
Answer: -2.11 Fold

Question: What about the “Fold Increase” value (BMP2) of the same substance?
Answer: 1.80 Fold

Question: And the “Fold Decrease” value (TNF)?
Answer: -4.34 Fold

Question: And the “Fold Increase” value (PPARD)?
Answer: 1.59 Fold

Question: And the “Fold Increase” value (MKI67)?
Answer: 1.83 Fold

Question: What about the “Fold Decrease” value (ILIA) of the same substance?
Answer: -1.77 Fold

Question: And the “Fold Increase” value (FLG)?
Answer: 2.23 Fold

Question: What about the “Fold Increase” value (TGFB1) of the same substance?
Answer: 1.72 Fold

Question: What about the “Fold Increase” value (CLDN7) of the same substance?
Answer: 1.69 Fold

Question: What about the “Fold Increase” value (LCE3D) of the same substance?
Answer: 1.61 Fold

Question: What about the “Fold Increase” value (CDSN) of the same substance?
Answer: 1.78 Fold

Question: What about the “Fold Decrease” value (KRT10) of the same substance?
Answer: -1.71 Fold
